Measurements as given in ChEMBL document CHEMBL1201862, “PubChem BioAssay data set” (2004).
Activity calls are given as the source filed them.

How the values were obtained:
[1] = Luminescence Cell-Based Dose Retest to Confirm Inhibitors of Cancer Stem Cells. [Related pubchem assays (depositor defined):AID2717, AID2721]; format: functional; conditions: Homo sapiens
Mucolipin-3 = biological target: T1, Mucolipin-3 (Homo sapiens, UniProt Q8TDD5); experiment: Dose response cell-based high-throughput screening assay for agonists of the transient receptor potential channel ML3 (TRPML3). [Related pubchem assays: 1526, 1424, 1448 ]; format: functional
T1 sequence (Q8TDD5 whole entry): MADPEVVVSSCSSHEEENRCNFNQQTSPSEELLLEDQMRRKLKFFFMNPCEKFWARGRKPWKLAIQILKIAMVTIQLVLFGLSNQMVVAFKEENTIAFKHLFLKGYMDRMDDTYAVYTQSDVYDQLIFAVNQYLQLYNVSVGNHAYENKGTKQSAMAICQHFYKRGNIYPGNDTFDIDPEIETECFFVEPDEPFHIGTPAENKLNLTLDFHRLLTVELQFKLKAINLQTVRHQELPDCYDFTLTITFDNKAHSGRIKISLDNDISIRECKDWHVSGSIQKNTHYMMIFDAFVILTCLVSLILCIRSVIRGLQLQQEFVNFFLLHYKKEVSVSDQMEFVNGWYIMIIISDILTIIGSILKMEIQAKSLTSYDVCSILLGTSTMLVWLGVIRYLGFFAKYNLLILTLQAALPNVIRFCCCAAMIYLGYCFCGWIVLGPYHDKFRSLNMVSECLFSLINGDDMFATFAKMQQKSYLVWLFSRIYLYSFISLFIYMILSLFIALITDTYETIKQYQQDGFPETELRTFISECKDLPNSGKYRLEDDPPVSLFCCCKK

Ion channel NompC = Ion channel NompC (Danio rerio, UniProt Q7T1G6); experiment: Fluorescence counterscreen assay for TRPML3 agonists: dose response cell-based high-throughput screening assay to identify agonists of the transient receptor potential channel N1 (TRPN1). [Related pubchem assays: 1526, 1424, 1448 ]; format: functional
[2] = biological target: Disintegrin and metalloproteinase domain-containing protein 17 (Homo sapiens, UniProt P78536); experiment: inhibition of ADAM17 substrate cleavage – biochemical, quenched FRET substrate, counter-screen for ADAM10 exosite inhibitor project, dose response (AID 743253)
[3] = NIH3T3 cell viability loss – ATP luminescence, mouse fibroblasts, counter-screen, dose response (AID 2010); format: functional, cell-based;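 further: cells exposed to compound for about 90 hours before reading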
[4] = Trypanosoma cruzi growth suppression in host cells – NIH3T3 host cells, beta-gal luminescence, confirmation (AID 2044); format: functional, cell-based;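 further: intracellular parasites grown in NIH/3T3 mouse fibroblasts as host cells; luminescent beta-galactosidase reporter signal from transgenic T. cruzi replicating inside host cells; inhibitors lower the luminescence signal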
Galanin receptor type 3 = Galanin receptor type 3 (Homo sapiens, UniProt O60755); experiment: Fluorescence-based cell-based primary high throughput dose response assay to identify antagonists of the Galanin Receptor 3 (GalR3).; format: functional
[5] = Counterscreen for AddAB inhibitors: absorbance-based bacterial cell-based high throughput dose response assay for inhibitors of bacterial viability. [Related pubchem assays (depositor defined):AID435030, AID449728, AID449731, AID488942, AID488955, AID488956]; format: functional
Nonstructural protein 1 = Nonstructural protein 1 (Influenza A virus, UniProt Q194T2); format: functional, Influenza A virus (A/California/07/2009(H1N1))
Exodeoxyribonuclease V = biological target: T2, Exodeoxyribonuclease V (Escherichia coli (strain K12), UniProt P04993+P07648+P08394); experiment: RecBCD inhibition via phage-restricted bacterial growth – absorbance, V66 E. coli, mutant T4 phage, counter-screen for AddAB inhibitor project, dose response (AID 492957); format: functional, cell-based, Escherichia coli str. K-12 substr. MG1655
T2 sequence (P04993 whole entry): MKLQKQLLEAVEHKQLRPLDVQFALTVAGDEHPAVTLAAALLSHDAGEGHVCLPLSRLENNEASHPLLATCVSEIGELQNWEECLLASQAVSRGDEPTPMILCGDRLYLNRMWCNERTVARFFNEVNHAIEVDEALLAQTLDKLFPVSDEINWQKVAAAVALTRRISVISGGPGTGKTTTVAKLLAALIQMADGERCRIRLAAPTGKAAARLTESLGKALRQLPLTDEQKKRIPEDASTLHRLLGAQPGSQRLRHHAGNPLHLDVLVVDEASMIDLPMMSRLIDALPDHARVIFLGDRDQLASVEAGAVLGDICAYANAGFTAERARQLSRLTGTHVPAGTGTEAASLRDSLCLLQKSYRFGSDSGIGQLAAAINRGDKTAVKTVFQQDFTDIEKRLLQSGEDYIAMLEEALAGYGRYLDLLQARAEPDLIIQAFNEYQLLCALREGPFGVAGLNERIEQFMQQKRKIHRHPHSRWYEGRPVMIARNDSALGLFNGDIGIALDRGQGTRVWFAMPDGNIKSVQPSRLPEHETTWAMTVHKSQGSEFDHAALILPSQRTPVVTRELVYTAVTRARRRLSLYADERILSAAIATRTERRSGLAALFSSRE
T2 sequence (P07648 whole entry): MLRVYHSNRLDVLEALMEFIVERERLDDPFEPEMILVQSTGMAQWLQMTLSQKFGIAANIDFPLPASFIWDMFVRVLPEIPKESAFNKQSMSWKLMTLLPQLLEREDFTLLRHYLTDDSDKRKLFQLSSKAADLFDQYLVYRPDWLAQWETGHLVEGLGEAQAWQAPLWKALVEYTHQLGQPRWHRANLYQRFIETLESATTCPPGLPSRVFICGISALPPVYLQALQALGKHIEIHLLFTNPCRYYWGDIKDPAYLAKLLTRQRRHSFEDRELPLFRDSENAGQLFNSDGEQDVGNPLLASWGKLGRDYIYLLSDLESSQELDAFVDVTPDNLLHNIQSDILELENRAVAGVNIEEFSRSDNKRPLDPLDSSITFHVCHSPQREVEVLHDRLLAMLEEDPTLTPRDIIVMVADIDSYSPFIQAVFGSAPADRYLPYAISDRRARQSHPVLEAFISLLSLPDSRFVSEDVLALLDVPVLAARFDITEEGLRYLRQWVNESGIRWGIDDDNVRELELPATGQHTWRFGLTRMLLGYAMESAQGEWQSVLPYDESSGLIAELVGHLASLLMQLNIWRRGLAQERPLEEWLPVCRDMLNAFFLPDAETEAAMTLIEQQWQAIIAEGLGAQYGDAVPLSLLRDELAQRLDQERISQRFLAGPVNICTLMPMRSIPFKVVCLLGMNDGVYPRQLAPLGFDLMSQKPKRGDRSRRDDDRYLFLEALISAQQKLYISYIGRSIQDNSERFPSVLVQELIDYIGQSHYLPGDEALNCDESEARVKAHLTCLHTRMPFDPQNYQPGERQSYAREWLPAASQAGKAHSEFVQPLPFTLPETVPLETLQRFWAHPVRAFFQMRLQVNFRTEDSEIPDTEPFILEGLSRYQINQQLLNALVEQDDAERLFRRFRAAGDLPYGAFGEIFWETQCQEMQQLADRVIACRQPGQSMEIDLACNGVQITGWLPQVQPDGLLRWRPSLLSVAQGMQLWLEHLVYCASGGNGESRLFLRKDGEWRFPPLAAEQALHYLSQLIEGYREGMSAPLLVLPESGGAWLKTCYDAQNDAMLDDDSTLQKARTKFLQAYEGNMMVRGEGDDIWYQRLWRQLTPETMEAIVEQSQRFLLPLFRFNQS
T2 sequence (P08394 whole entry): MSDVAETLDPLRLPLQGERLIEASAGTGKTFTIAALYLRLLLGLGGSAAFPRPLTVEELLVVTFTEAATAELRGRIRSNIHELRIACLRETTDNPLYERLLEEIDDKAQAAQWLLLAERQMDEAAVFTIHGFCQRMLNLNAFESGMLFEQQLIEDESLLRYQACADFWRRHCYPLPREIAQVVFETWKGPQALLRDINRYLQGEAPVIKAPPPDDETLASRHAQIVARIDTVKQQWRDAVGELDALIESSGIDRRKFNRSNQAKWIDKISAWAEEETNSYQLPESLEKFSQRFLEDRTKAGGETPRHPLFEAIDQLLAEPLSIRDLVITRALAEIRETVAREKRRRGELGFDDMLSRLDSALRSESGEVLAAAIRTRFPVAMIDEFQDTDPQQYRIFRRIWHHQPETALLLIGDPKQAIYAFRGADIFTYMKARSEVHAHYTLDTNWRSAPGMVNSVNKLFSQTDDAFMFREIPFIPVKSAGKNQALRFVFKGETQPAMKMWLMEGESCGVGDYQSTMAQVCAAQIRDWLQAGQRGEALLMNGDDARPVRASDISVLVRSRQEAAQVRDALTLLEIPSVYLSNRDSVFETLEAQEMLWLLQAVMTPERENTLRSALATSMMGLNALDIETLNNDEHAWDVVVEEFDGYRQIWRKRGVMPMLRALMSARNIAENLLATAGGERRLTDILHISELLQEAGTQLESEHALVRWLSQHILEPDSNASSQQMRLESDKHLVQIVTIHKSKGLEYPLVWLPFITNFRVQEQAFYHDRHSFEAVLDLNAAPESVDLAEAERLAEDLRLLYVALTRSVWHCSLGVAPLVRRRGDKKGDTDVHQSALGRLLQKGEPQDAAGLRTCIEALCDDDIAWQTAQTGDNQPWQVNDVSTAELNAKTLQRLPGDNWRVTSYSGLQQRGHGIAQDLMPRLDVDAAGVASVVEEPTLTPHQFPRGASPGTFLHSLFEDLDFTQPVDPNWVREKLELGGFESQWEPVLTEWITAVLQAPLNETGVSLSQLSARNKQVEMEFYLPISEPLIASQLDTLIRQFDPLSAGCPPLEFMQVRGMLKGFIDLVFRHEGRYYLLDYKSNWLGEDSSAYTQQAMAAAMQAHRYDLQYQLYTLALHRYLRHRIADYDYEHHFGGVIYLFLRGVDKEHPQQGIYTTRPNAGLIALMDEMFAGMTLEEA

cells [6] = experiment: cells
cells [7] = format: functional, cell-based; conditions: HEK-CNG
[8] = A2780 cell killing – plate reader, dry powder samples, cytotoxicity control, dose response (AID 743046); format: functional, cell-based
[9] = OVCAR8 cell viability loss – plate reader, dry powder samples, PAX8 project, dose response (AID 743197); format: functional, cell-based; conditions: OVCAR-8
[10] = IGROV1 cell killing – plate reader, dry powder samples, PAX8 inhibitor project, dose response (AID 743043); format: functional, cell-based; conditions: IGROV-1
[11] = OVCAR-3 cell viability loss – plate reader, dry powder samples, PAX8 inhibitor project, dose response (AID 743044); format: functional, cell-based
Paired box protein Pax-8 = Paired box protein Pax-8 (Homo sapiens, UniProt Q06710); experiment: PAX8 transcriptional activity inhibition in RMG-I – RMG-I cells, luciferase, cherry-pick, dose response (AID 687027); format: functional, cell-based;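 further: luciferase reporter driven by Pax8 target thyroperoxidase promoter measured by SteadyGlo luminescence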
[12] = anti-trypanosomal activity in BESM host cells – imaging, CA-I/72 strain, bovine embryo skeletal muscle, dry powder, dose response (AID 651885); format: functional, cell-based
[13] = biological target: Potassium channel subfamily K member 3 (Homo sapiens, UniProt O14649); experiment: inhibition of human KCNK3 channel flux – CHO cells, FluxOR thallium flux, SAR follow-up (AID 652212); format: functional
[14] = biological target: Potassium channel subfamily K member 9 (Homo sapiens, UniProt Q9NPC2); experiment: KCNK9 flux blockade, concentration-response – cell-based, FluxOR thallium flux, selectivity assay for TASK1 inhibitor project, SAR follow-up (AID 652211); format: functional;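 further: potency is for inhibitors of the channel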
[15] = biological target: Potassium channel subfamily K member 3 (Rattus norvegicus, UniProt O54912); experiment: SAR analysis for the identification of selective inhibitors of the two-pore domain potassium channel TASK1(KCNK3):Automated Electrophysiology.; format: functional
Chain of Potassium channel subfamily K member 3 (Rattus norvegicus, UniProt O54912) (O54912 whole entry, the tested form may be a part): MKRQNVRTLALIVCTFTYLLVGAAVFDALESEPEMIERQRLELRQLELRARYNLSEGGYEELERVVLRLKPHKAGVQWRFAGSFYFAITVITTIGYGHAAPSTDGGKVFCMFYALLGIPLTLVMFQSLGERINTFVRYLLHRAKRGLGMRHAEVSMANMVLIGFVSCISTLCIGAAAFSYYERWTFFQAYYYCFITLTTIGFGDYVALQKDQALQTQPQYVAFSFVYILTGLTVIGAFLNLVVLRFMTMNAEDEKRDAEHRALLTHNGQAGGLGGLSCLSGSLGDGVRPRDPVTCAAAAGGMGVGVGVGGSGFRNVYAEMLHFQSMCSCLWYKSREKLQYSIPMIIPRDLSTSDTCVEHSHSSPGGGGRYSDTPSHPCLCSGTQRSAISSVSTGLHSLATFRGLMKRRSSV

Chain of Ion channel NompC (Q7T1G6 whole entry, the tested form may be a part): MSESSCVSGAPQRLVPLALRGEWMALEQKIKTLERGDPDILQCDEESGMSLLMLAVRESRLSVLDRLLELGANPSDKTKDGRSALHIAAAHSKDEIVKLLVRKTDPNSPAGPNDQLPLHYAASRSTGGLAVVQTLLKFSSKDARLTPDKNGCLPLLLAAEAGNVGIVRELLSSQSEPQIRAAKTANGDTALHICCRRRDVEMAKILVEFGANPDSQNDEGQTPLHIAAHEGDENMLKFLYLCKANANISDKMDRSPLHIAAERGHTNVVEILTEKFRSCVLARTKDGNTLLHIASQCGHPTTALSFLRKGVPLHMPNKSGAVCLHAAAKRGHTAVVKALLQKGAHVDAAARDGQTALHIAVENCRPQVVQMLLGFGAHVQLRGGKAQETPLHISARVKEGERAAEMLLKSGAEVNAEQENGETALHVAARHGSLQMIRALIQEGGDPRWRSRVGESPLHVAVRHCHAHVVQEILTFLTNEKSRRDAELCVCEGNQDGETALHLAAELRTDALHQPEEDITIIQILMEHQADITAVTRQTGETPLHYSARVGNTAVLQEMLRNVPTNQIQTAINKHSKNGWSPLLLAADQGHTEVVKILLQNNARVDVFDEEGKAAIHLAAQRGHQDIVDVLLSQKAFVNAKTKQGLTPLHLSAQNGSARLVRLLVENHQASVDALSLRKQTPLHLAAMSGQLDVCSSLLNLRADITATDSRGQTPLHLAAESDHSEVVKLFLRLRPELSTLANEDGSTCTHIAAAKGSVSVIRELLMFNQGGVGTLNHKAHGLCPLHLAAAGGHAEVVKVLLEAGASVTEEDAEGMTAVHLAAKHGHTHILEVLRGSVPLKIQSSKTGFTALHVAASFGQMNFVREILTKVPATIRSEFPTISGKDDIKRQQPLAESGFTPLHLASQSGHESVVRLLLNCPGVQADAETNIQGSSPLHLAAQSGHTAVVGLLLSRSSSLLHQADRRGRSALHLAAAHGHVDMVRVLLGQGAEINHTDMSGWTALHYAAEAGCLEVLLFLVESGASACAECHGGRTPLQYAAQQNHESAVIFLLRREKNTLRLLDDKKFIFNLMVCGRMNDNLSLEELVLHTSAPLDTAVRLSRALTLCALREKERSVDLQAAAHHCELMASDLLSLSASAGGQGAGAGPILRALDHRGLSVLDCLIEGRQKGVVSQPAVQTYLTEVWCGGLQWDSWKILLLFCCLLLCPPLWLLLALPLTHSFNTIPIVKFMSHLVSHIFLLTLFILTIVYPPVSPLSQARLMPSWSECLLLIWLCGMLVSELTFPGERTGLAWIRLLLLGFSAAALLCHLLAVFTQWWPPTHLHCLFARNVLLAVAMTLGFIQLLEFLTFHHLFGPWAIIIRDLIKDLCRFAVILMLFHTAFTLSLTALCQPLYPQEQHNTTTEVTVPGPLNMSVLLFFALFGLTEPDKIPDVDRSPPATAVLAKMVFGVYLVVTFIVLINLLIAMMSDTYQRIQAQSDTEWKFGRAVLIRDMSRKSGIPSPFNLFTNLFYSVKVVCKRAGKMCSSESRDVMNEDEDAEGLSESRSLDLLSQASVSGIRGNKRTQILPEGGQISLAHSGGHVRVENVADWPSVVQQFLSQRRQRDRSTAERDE
Chain of Nonstructural protein 1 (Q194T2 whole entry): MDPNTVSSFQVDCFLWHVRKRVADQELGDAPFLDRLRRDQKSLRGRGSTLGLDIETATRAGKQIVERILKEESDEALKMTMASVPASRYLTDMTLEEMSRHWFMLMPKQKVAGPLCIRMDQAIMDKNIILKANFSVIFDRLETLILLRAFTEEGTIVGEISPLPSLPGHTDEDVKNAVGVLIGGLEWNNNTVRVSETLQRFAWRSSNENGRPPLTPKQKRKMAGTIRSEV
Chain of Paired box protein Pax-8 (Q06710 whole entry): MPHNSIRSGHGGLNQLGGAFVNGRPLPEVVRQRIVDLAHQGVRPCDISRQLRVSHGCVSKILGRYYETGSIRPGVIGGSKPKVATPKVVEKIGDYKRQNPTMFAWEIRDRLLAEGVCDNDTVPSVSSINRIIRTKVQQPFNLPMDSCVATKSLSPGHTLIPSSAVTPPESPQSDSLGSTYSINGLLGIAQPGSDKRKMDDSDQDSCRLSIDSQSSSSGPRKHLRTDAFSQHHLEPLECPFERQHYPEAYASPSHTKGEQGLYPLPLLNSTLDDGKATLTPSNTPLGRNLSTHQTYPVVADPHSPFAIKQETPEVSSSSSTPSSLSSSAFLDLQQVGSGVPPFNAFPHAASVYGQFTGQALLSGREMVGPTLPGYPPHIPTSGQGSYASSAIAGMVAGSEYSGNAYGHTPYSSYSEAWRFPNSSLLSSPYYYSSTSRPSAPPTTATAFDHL
Chain of Potassium channel subfamily K member 9 (Q9NPC2 whole entry, the tested form may be a part): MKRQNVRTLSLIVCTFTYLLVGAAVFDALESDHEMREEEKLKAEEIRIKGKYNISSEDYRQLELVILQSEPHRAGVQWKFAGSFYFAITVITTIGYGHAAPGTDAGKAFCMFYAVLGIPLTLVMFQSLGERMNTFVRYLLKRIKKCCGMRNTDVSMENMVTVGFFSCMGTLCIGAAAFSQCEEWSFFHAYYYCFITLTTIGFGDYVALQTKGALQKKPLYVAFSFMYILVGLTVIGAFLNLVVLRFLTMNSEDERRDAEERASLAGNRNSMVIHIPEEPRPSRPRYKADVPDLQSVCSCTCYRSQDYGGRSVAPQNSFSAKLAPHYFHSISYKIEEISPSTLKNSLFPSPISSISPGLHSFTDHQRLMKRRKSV
Chain of Disintegrin and metalloproteinase domain-containing protein 17 (P78536 whole entry, the tested form may be a part): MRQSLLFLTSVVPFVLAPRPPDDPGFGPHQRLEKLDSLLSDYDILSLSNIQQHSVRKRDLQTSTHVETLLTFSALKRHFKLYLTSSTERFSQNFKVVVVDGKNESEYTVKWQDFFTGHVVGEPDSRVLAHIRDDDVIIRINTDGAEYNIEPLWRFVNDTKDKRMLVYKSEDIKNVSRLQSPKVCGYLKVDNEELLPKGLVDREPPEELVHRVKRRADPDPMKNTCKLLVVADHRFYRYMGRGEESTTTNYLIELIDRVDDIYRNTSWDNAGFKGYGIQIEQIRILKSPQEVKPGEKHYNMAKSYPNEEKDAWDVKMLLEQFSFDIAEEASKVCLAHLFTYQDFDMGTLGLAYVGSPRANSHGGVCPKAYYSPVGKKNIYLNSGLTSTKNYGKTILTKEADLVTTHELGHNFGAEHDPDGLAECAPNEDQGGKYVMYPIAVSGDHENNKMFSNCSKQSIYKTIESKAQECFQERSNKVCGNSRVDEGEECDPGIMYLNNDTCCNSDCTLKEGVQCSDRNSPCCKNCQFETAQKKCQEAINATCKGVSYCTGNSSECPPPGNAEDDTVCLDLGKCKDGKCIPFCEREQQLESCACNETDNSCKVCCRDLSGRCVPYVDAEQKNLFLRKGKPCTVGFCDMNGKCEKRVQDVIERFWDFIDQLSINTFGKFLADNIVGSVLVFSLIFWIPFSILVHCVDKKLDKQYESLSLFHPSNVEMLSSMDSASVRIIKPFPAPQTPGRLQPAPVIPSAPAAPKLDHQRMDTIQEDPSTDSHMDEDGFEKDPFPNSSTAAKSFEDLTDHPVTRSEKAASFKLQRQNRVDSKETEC
Chain of Galanin receptor type 3 (O60755 whole entry): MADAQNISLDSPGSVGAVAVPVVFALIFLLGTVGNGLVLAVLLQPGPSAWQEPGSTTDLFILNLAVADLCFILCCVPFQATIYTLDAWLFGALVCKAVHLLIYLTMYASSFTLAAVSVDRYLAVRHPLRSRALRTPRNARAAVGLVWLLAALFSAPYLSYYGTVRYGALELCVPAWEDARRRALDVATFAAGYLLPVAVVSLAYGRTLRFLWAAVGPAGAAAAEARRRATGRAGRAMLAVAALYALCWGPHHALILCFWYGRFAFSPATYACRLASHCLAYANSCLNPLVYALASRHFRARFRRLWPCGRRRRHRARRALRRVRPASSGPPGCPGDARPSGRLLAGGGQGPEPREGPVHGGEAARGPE
Chain of Potassium channel subfamily K member 3 (Homo sapiens, UniProt O14649) (O14649 whole entry): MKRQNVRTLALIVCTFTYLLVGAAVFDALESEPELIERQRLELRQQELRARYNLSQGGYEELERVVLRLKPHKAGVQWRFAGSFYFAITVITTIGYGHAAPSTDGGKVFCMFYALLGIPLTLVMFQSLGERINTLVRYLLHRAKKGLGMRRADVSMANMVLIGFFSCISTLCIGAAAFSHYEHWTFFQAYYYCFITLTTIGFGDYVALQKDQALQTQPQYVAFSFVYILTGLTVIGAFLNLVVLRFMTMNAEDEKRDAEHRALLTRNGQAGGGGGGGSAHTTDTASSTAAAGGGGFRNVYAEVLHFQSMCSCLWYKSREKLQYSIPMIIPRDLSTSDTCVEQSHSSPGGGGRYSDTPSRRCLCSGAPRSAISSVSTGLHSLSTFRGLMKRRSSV

CCOC(=O)c1c(CSc2ccc(C)cc2)oc2ccc(O)cc12
AC50 [1]: 3.94 µM (active) | EC50 (Mucolipin-3): 4.33 µM (active) | EC50 (Ion channel NompC): > 29.9 µM (not active) | IC50 [2]: > 69.6 µM (inactive)

C=CCN1/C(=C/c2ccc3cc(C)ccc3[n+]2CC)C=Cc2ccccc21
EC50 [3]: 6.53 µM (active) | EC50 [4]: < 0.1 µM (active) | IC50 (Galanin receptor type 3): > 0.123 µM (active) | IC50 [5]: 35.8 µM (inactive) | IC50 (Nonstructural protein 1): 11.7 µM (active) | IC50 (Exodeoxyribonuclease V): > 39.5 µM (inactive) | EC50 (cells [6]): 0.054 µM (active) | EC50 (cells [7]): > 29.9 µM (inactive)

C[C@@H]1CN([C@@H](C)CO)C(=O)c2cc(NS(=O)(=O)c3ccc(F)cc3)ccc2O[C@@H](C)CCCCO[C@@H]1CN(C)Cc1ccc(C(F)(F)F)cc1
AC50 [8]: 62.8 µM (active) | AC50 [9]: 55.4 µM (active) | AC50 [10]: 57.6 µM (active) | AC50 [11]: 40.5 µM (active) | AC50 (Paired box protein Pax-8): 8.92 µM (active)

CC(C)N1C[C@H](C)[C@@H](CN(C)C(=O)OC(C)(C)C)Oc2c(C#N)cccc2C1=O
IC50 [12]: > 20 µM (inactive)

COc1ccccc1NC(=O)c1cccc(NC(=O)c2ccccc2C(F)(F)F)c1
IC50 [13]: 0.042 µM (active) | IC50 [14]: 1.32 µM (active) | IC50 [15]: 0.149 µM (active)
